Test results reported in ChEMBL document CHEMBL1201862, “PubChem BioAssay data set” (2004).
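Tested at 5 concentrations; 48 h exposure; 96-well plates; endpoints linearly interpolated, else capped at highest concentration. At the GI50, growth is halved.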 Activity calls are given as the source filed them. No stated cut-off is given here; in the data, active = GI50 up to about 1.1 µM and inactive = higher.

Columns and labels:
Test in all cases: NCI-60 cell line screen, 48 h
MDA-N = test system: MDA-N
SK-MEL-5 = test system: SK-MEL-5
A549 = test system: A549
SNB-75 = test system: SNB-75
NCI/ADR-RES = test system: NCI/ADR-RES
SK-MEL-28 = test system: SK-MEL-28
NCI-H460 = test system: NCI-H460
CCRF-CEM = test system: CCRF-CEM
UO-31 = test system: UO-31
HCT-116 = test system: HCT-116
PC-3 = test system: PC-3
MDA-MB-231 = test system: MDA-MB-231
CAKI-1 = test system: CAKI-1
SNB-19 = test system: SNB-19
HL-60 = test system: HL-60
SF-539 = test system: SF-539
Malme-3M = test system: Malme-3M
Hs-578T = test system: Hs-578T
NCI-H226 = test system: NCI-H226
NCI-H522 = test system: NCI-H522
SF-295 = test system: SF-295
MDA-MB-435 = test system: MDA-MB-435
HOP-92 = test system: HOP-92
HCC 2998 = test system: HCC 2998
NCI-H23 = test system: NCI-H23
MCF7 = test system: MCF7
HCT-15 = test system: HCT-15
RPMI-8226 = test system: RPMI-8226
UACC-62 = test system: UACC-62
M14 = test system: M14
SK-OV-3 = test system: SK-OV-3
KM12 = test system: KM12
SN12C = test system: SN12C
A498 = test system: A498
786-0 = test system: 786-0
SW-620 = test system: SW-620
HT-29 = test system: HT-29
K562 = test system: K562
BT-549 = test system: BT-549
SK-MEL-2 = test system: SK-MEL-2
LOX IMVI = test system: LOX IMVI
T47D = test system: T47D
DU-145 = test system: DU-145
MOLT-4 = test system: MOLT-4
EKVX = test system: EKVX
SF-268 = test system: SF-268
OVCAR-5 = test system: OVCAR-5
UACC-257 = test system: UACC-257
ACHN = test system: ACHN
IGROV-1 = test system: IGROV-1
RXF 393 = test system: RXF 393
HOP-62 = test system: HOP-62
OVCAR-8 = test system: OVCAR-8
OVCAR-4 = test system: OVCAR-4
TK-10 = test system: TK-10
COLO 205 = test system: COLO 205
U-251 = test system: U-251
OVCAR-3 = test system: OVCAR-3

For `O=C1c2c(O)cccc2C(C2OC(CO)C(O)C(O)C2O)c2cc(CO)cc(O)c21` (configuration not stated), the GI50 (MDA-N) was > 100 µM (inactive), the GI50 (SK-MEL-5) was > 100 µM (inactive) and the GI50 (A549) was > 100 µM (inactive). For the same compound, the GI50 (SNB-75) was > 100 µM (inactive), the GI50 (NCI/ADR-RES) was > 100 µM (inactive) and the GI50 (SK-MEL-28) was > 100 µM (inactive). The GI50 (NCI-H460) was > 100 µM (inactive), the GI50 (CCRF-CEM) was > 100 µM (inactive) and the GI50 (UO-31) was > 100 µM (inactive). The GI50 (HCT-116) was > 100 µM (inactive), the GI50 (PC-3) was > 100 µM (inactive) and the GI50 (MDA-MB-231) was > 100 µM (inactive). For the same compound, the GI50 (CAKI-1) was > 100 µM (inactive), the GI50 (SNB-19) was > 100 µM (inactive) and the GI50 (HL-60) was > 100 µM (inactive). For the same compound, the GI50 (SF-539) was > 100 µM (inactive), the GI50 (Malme-3M) was > 100 µM (inactive) and the GI50 (Hs-578T) was > 100 µM (inactive). The GI50 (NCI-H226) was > 100 µM (inactive), the GI50 (NCI-H522) was > 100 µM (inactive) and the GI50 (SF-295) was > 100 µM (inactive). The GI50 (MDA-MB-435) was > 100 µM (inactive), the GI50 (HOP-92) was > 100 µM (inactive) and the GI50 (HCC 2998) was > 100 µM (inactive). For the same compound, the GI50 (NCI-H23) was > 100 µM (inactive), the GI50 (MCF7) was > 100 µM (inactive) and the GI50 (HCT-15) was over 100 µM. The GI50 (RPMI-8226) was > 100 µM (inactive), the GI50 (UACC-62) was > 100 µM (inactive) and the GI50 (M14) was > 100 µM (inactive). For the same compound, the GI50 (SK-OV-3) was > 100 µM (inactive), the GI50 (KM12) was > 100 µM (inactive) and the GI50 (SN12C) was > 100 µM (inactive). The GI50 (A498) was > 100 µM (inactive), the GI50 (786-0) was > 100 µM (inactive) and the GI50 (SW-620) was > 100 µM (inactive). For the same compound, the GI50 (HT-29) was > 100 µM (inactive), the GI50 (K562) was > 100 µM (inactive) and the GI50 (BT-549) was > 100 µM (inactive). The GI50 (SK-MEL-2) was > 100 µM (inactive), the GI50 (LOX IMVI) was > 100 µM (inactive) and the GI50 (T47D) was > 100 µM (inactive). The GI50 (DU-145) was > 100 µM (inactive), the GI50 (MOLT-4) was > 100 µM (inactive) and the GI50 (EKVX) was > 100 µM (inactive). For the same compound, the GI50 (SF-268) was > 100 µM (inactive), the GI50 (OVCAR-5) was > 100 µM (inactive) and the GI50 (UACC-257) was > 100 µM (inactive). For the same compound, the GI50 (ACHN) was > 100 µM (inactive), the GI50 (IGROV-1) was > 100 µM (inactive) and the GI50 (RXF 393) was > 100 µM (inactive). The GI50 (HOP-62) was > 100 µM (inactive), the GI50 (OVCAR-8) was > 100 µM (inactive) and the GI50 (OVCAR-4) was > 100 µM (inactive). For the same compound, the GI50 (TK-10) was > 100 µM (inactive), the GI50 (COLO 205) was > 100 µM (inactive) and the GI50 (U-251) was > 100 µM (inactive).

With `N#CCCN(CCC#N)c1ccc(/C=C2\N=C(c3ccccc3)N(c3ccccc3)C2=O)cc1` the GI50 (MDA-N) was > 100 µM (inactive), the GI50 (SK-MEL-5) was 4.38 µM (inactive) and the GI50 (A549) was > 100 µM (inactive). The GI50 (NCI/ADR-RES) was > 100 µM (inactive), the GI50 (SK-MEL-28) was > 100 µM (inactive) and the GI50 (NCI-H460) was 2.1 µM (inactive). For the same compound, the GI50 (CCRF-CEM) was 2.26 µM (inactive), the GI50 (UO-31) was > 100 µM (inactive) and the GI50 (HCT-116) was 5.93 µM (inactive). The GI50 (PC-3) was 17 µM (inactive), the GI50 (MDA-MB-231) was > 100 µM (inactive) and the GI50 (SNB-19) was > 100 µM (inactive). The GI50 (HL-60) was 3.07 µM (inactive), the GI50 (SF-539) was 6.11 µM (inactive) and the GI50 (Malme-3M) was > 100 µM (inactive). For the same compound, the GI50 (Hs-578T) was 19.3 µM (inactive), the GI50 (NCI-H226) was > 100 µM (inactive) and the GI50 (NCI-H522) was 18.7 µM (inactive). The GI50 (SF-295) was > 100 µM (inactive), the GI50 (MDA-MB-435) was > 100 µM (inactive) and the GI50 (HOP-92) was 5.19 µM (inactive). The GI50 (MCF7) was > 100 µM (inactive), the GI50 (HCT-15) was 6.25 µM and the GI50 (RPMI-8226) was 8.36 µM (inactive). For the same compound, the GI50 (UACC-62) was > 100 µM (inactive), the GI50 (M14) was > 100 µM (inactive) and the GI50 (SK-OV-3) was > 100 µM (inactive). The GI50 (KM12) was > 100 µM (inactive), the GI50 (SN12C) was > 100 µM (inactive) and the GI50 (A498) was > 100 µM (inactive). For the same compound, the GI50 (OVCAR-3) was > 100 µM (inactive), the GI50 (786-0) was 17 µM (inactive) and the GI50 (SW-620) was > 100 µM (inactive). The GI50 (HT-29) was 8.97 µM (inactive), the GI50 (K562) was 18.5 µM (inactive) and the GI50 (BT-549) was 57.1 µM (inactive). The GI50 (SK-MEL-2) was > 100 µM (inactive), the GI50 (LOX IMVI) was 7.21 µM (inactive) and the GI50 (T47D) was > 100 µM (inactive). For the same compound, the GI50 (DU-145) was > 100 µM (inactive), the GI50 (MOLT-4) was 8.59 µM (inactive) and the GI50 (EKVX) was > 100 µM (inactive). For the same compound, the GI50 (OVCAR-5) was > 100 µM (inactive), the GI50 (UACC-257) was > 100 µM (inactive) and the GI50 (ACHN) was > 100 µM (inactive). The GI50 (IGROV-1) was 25.8 µM (inactive), the GI50 (RXF 393) was > 100 µM (inactive) and the GI50 (HOP-62) was > 100 µM (inactive). For the same compound, the GI50 (OVCAR-8) was > 100 µM (inactive), the GI50 (OVCAR-4) was > 100 µM (inactive) and the GI50 (TK-10) was > 100 µM (inactive). The GI50 (COLO 205) was 9.38 µM (inactive) and the GI50 (U-251) was > 100 µM (inactive).

In the case of `CCC(C)C(C(=O)N/N=C1/SCC(=O)N1C)C(=O)N/N=C1/SCC(=O)N1C` (configuration not stated), the GI50 (MDA-N) is reported as > 100 µM (inactive), the GI50 (SK-MEL-5) is reported as > 100 µM (inactive) and the GI50 (A549) is reported as > 100 µM (inactive). The GI50 (SNB-75) was > 100 µM (inactive), the GI50 (NCI/ADR-RES) was > 100 µM (inactive) and the GI50 (SK-MEL-28) was > 100 µM (inactive). For the same compound, the GI50 (NCI-H460) was > 100 µM (inactive), the GI50 (UO-31) was > 100 µM (inactive) and the GI50 (HCT-116) was > 100 µM (inactive). For the same compound, the GI50 (PC-3) was > 100 µM (inactive), the GI50 (MDA-MB-231) was > 100 µM (inactive) and the GI50 (CAKI-1) was > 100 µM (inactive). The GI50 (SNB-19) was > 100 µM (inactive), the GI50 (HL-60) was 2.04 µM (inactive) and the GI50 (SF-539) was > 100 µM (inactive). The GI50 (Malme-3M) was > 100 µM (inactive), the GI50 (Hs-578T) was > 100 µM (inactive) and the GI50 (NCI-H226) was > 100 µM (inactive). For the same compound, the GI50 (NCI-H522) was > 100 µM (inactive), the GI50 (SF-295) was > 100 µM (inactive) and the GI50 (MDA-MB-435) was > 100 µM (inactive). The GI50 (HOP-92) was > 100 µM (inactive), the GI50 (HCC 2998) was > 100 µM (inactive) and the GI50 (NCI-H23) was > 100 µM (inactive). For the same compound, the GI50 (MCF7) was > 100 µM (inactive), the GI50 (HCT-15) was over 100 µM and the GI50 (RPMI-8226) was > 100 µM (inactive). The GI50 (UACC-62) was > 100 µM (inactive), the GI50 (M14) was > 100 µM (inactive) and the GI50 (SK-OV-3) was > 100 µM (inactive). For the same compound, the GI50 (KM12) was > 100 µM (inactive), the GI50 (SN12C) was > 100 µM (inactive) and the GI50 (A498) was > 100 µM (inactive). For the same compound, the GI50 (OVCAR-3) was > 100 µM (inactive), the GI50 (786-0) was > 100 µM (inactive) and the GI50 (SW-620) was > 100 µM (inactive). The GI50 (HT-29) was > 100 µM (inactive), the GI50 (K562) was > 100 µM (inactive) and the GI50 (BT-549) was > 100 µM (inactive). The GI50 (SK-MEL-2) was > 100 µM (inactive), the GI50 (LOX IMVI) was > 100 µM (inactive) and the GI50 (T47D) was > 100 µM (inactive). For the same compound, the GI50 (DU-145) was > 100 µM (inactive), the GI50 (MOLT-4) was > 100 µM (inactive) and the GI50 (EKVX) was > 100 µM (inactive). For the same compound, the GI50 (SF-268) was > 100 µM (inactive), the GI50 (OVCAR-5) was > 100 µM (inactive) and the GI50 (UACC-257) was > 100 µM (inactive). The GI50 (ACHN) was > 100 µM (inactive), the GI50 (IGROV-1) was > 100 µM (inactive) and the GI50 (RXF 393) was > 100 µM (inactive). The GI50 (HOP-62) was > 100 µM (inactive), the GI50 (OVCAR-8) was > 100 µM (inactive) and the GI50 (OVCAR-4) was > 100 µM (inactive). The GI50 (TK-10) was > 100 µM (inactive), the GI50 (COLO 205) was > 100 µM (inactive) and the GI50 (U-251) was > 100 µM (inactive).
